Publication PMC10106456 (Communications Biology, 2023)
Where “and” joins values, the source holds several entries; their conditions need not be identical. Identical values can stand only once. Like-named read-outs stand apart in the source and are kept apart here.

What was measured:
Tet(X6) [1] = target: T1, Tet(X6) (Proteus genomosp. 6, UniProt A0A6I7DAX3); experiment: Substrate degradation by LC-MS (extracted ion counts); format: biochemical, Proteus genomospecies; settings: Tet(X6) reaction of aTC
Procedure: (§1) All in vitro kinetic assays were prepared open to air in non-degassed buffer solutions at room temperature. […] In vitro reactions were monitored by optical absorbance spectroscopy on an Agilent Cary 50 UV-visible spectrophotometer using polystyrene cuvettes. Reaction progress was monitored by optical absorbance spectroscopy (280−550 nm, 1 nm and 5 min intervals) over 2 h. […] The quenched samples were centrifuged (5000 rpm, 4 °C) for 5 min, and 600 μL of the resulting supernatant was mixed with an Fmoc-Ala internal standard (3.12 μM final concentration) and analyzed by LC-MS in positive ion mode (single trial). LC-MS was acquired using an Agilent 6130 single quadrupole instrument (ESI + ) with G1313 autosampler, G1315 diode array detector, and 1200 series solvent module with separation on a Phenomenex Gemini C18 column, 50 × 2 mm (5 um) fit with a guard column cassette. LCMS solvents were 0.1% formic acid in H2O (A) and 0.1% formic acid in acetonitrile (B). […] LCMS data were processed using ChemStation software version B.04.02 SP1. Extracted ion chromatograms (EICs) for the expected [M + H]^+ molecular ions corresponding to substrate and mono-hydroxylated product were normalized to the [M + H]^+ counts for an Fmoc-Ala internal standard.

Tet(X6) [2] = target: T1, Tet(X6); experiment: Substrate degradation by scanning optical absorbance spectroscopy; format: biochemical, Proteus genomospecies; settings: in the presence of Tet(X6), NADPH, and O2; 20 μM substrate, 2 h
Procedure: as §1

[3] = test system: E. coli DH5αZ1 pZE24-empty; experiment: Checkerboard whole cell inhibition assay (tetracycline + anhydrotetracycline); format: cell-based
Procedure: (§2) For high expression, 1 mM IPTG fully relieves repression by LacI[44] thus only IPTG was used in whole-cell tests. Chemically-competent E. coli DH5αZ1 (Expressys) was transformed with these pZE24 constructs by heat shock. Minimum inhibitory concentrations (MICs) were measured as per Clinical and Laboratory Standards Institute (CLSI) guidelines. Substrates and inhibitors were dissolved in DMSO (20 mg/mL) then diluted to working concentrations in cation-adjusted Mueller-Hinton II broth supplemented with 50 μg/mL kanamycin (Supplementary Data 2). Antibiotic susceptibility testing panels were prepared in 96-well flat-bottom microplates (Corning) by two-fold serial dilution of the antibiotic of interest (Supplementary Data 3). […] Liquid cultures of each strain were grown to exponential phase then diluted to a standard concentration (OD600 = 0.0015, which is equivalent to double ~5 × 10^5 CFU/mL) and inoculated into each panel at a 1:1 ratio. […] Each strain-antibiotic/inhibitor combination was tested in triplicate, along with no-drug and no-cell controls. Inoculated panels were sealed with Breathe-Easy membranes (Sigma-Aldrich) and incubated at 37 °C for 20 h. MICs were scored by absorbance measurements at 600 nm (OD600) using the Synergy H1 microplate reader (Biotek Instruments, Inc).

[4] = test system: E. coli expressing Tet(X7); experiment: as above; format: cell-based; settings: pZE24-tetX7, panel concentrations in μg/mL per Supp. Data 3
Procedure: as §2

Tet(X6) [5] = target: T1, Tet(X6); experiment: Apparent Tet(X6) inhibitor IC50 (optical absorbance assay); format: biochemical, Proteus genomospecies; settings: for IC50: Tet(X6); for Slope (velocity of substrate degradation in presence of aTC): trials 1-3
Procedure: All experiments were prepared open to air in non-degassed buffer solutions at room temperature. […] Initial enzyme velocities were determined by linear regression using Agilent Cary WinUV Software over the linear range of the reaction (typically between 0 to 1 min). The velocities were plotted against the logarithm of inhibitor concentration, and apparent IC50 values were determined using nonlinear regression analysis in GraphPad Prism v6. Each set of experiments included a no-TDase control reaction which was used as the full enzyme inhibition velocity and assigned to an inhibitor concentration of 1 × 10^15, as well as a no-inhibitor control which was assigned an inhibitor concentration of 1 × 10^–15.

Tet(X6) [6] = target: T1, Tet(X6); settings: for Slope (initial velocity of substrate degradation): trials 1-3, absorbance 400 nm (440 nm for aTC)
Procedure: All experiments were prepared open to air in non-degassed buffer solutions at room temperature. […] Initial enzyme velocities were determined by linear regression using Agilent Cary WinUV Software over the linear range of the reaction (typically between 0 to 1 min), plotted against the concentration of the substrate, and fitted to the Michaelis–Menten or allosteric sigmoidal nonlinear regression equations using GraphPad Prism 6.

[7] = test system: E. coli expressing Tet(X6); format: cell-based; settings: pZE24-tetX6, panel concentrations in μg/mL per Supp. Data 3
Procedure: as §2

[8] = test system: E. coli DH5αZ1 + pZE24 (empty); experiment: Microbroth dilution antibiotic susceptibility test (MIC); format: cell-based; settings: Escherichia coli, 20 h, drug alone
Procedure: as §2

[9] = test system: E. coli DH5αZ1 + pZE24-tet(X7); experiment: as above; format: cell-based; settings: Escherichia coli, 20 h
Procedure: as §2

[10] = test system: E. coli DH5αZ1 + pZE24-tet(X6); experiment: as above; format: cell-based; settings: Escherichia coli
Procedure: as §2

T1 sequence (A0A6I7DAX3 entry or part of it): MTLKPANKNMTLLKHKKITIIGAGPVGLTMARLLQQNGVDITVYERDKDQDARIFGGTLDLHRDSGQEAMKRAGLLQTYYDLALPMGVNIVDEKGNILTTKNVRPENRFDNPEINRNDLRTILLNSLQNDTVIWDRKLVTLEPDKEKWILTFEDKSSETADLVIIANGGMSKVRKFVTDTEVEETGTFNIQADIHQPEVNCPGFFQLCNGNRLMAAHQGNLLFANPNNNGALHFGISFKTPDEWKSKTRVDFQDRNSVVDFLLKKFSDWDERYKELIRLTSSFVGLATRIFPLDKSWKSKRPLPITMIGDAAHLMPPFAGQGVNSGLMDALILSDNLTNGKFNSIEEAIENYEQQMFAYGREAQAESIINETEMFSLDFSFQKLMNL

Cc1c2c(c(O)c3c(O)cccc13)C(=O)[C@]1(O)C(=O)C(C(N)=O)=C(O)[C@@H](N(C)C)[C@@H]1C2 [aTC, anhydrotetracycline]
Percent Ion Count (relative %) (Tet(X6) [1]; time 0 min): 100% | Percent Ion Count (relative %) (Tet(X6) [1]; time 5 min): 95.7447% | Percent Ion Count (relative %) (Tet(X6) [1]; time 30 min): 80% | Percent Ion Count (relative %) (Tet(X6) [1]; time 60 min): 64.9123% | Percent Ion Count (relative %) (Tet(X6) [1]; time 90 min): 74.5098% | Percent Ion Count (relative %) (Tet(X6) [1]; time 120 min): 75.7895% | degradation observed by optical absorbance (Tet(X6) [2]): time-dependent decrease at 440 nm | ATC concentration inhibiting growth at fixed TET (Fig3a source data) ([3]; TET 0, panel concentrations in μg/mL per Supp. Data 3): 4 | ATC concentration inhibiting growth at fixed TET (Fig3a source data) ([3]; TET 1, panel concentrations in μg/mL per Supp. Data 3): 0 | ATC concentration inhibiting growth at fixed TET (Fig3a source data) ([4]; TET 0): 8 | ATC concentration inhibiting growth at fixed TET (Fig3a source data) ([4]; TET 1): 8 | ATC concentration inhibiting growth at fixed TET (Fig3a source data) ([4]; TET 2): 4 | ATC concentration inhibiting growth at fixed TET (Fig3a source data) ([4]; TET 4): 4 | ATC concentration inhibiting growth at fixed TET (Fig3a source data) ([4]; TET 8): 2 | ATC concentration inhibiting growth at fixed TET (Fig3a source data) ([4]; TET 16): 0.5 | ATC concentration inhibiting growth at fixed TET (Fig3a source data) ([4]; TET 32): 0 | IC50 (Tet(X6) [5]; IC50, aTC inhibition of ERA degradation, substrate ERA): 9 ± 1 µM | IC50 (Tet(X6) [5]; IC50, aTC inhibition of OMA degradation, substrate OMA): 12 ± 4 µM | IC50 (Tet(X6) [5]; IC50, aTC inhibition of TIG degradation, substrate TIG): 2.2 ± 0.2 µM | Slope (velocity of substrate degradation in presence of aTC) (Tet(X6) [5]; substrate Erav, log[aTC] μM 0.81): 0.0443 and 0.0431 and 0.045 | Slope (velocity of substrate degradation in presence of aTC) (Tet(X6) [5]; substrate Erav, log[aTC] μM 1.41): 0.0266 and 0.0254 and 0.0225 | Slope (velocity of substrate degradation in presence of aTC) (Tet(X6) [5]; substrate Erav, log[aTC] μM 1.72): 0.0176 and 0.0178 and 0.0199 | Slope (velocity of substrate degradation in presence of aTC) (Tet(X6) [5]; substrate Erav, log[aTC] μM 2.07): 0.0149 and 0.0154 and 0.0125 | Slope (velocity of substrate degradation in presence of aTC) (Tet(X6) [5]; substrate Erav, log[aTC] μM 2.16): 0.007 and 0.0075 and 0.0083 | Slope (velocity of substrate degradation in presence of aTC) (Tet(X6) [5]; substrate Omad, log[aTC] μM 0.81): 0.0132 and 0.0149 and 0.0223 | Slope (velocity of substrate degradation in presence of aTC) (Tet(X6) [5]; substrate Omad, log[aTC] μM 1.41): 0.0111 and 0.0097 and 0.0109 | Slope (velocity of substrate degradation in presence of aTC) (Tet(X6) [5]; substrate Omad, log[aTC] μM 1.72): 0.0072 and 0.0051 and 0.0089 | Slope (velocity of substrate degradation in presence of aTC) (Tet(X6) [5]; substrate Omad, log[aTC] μM 2.16): 0.0042 and 0.007 and 0.0037 | Slope (velocity of substrate degradation in presence of aTC) (Tet(X6) [5]; substrate Tig, log[aTC] μM 0.81): 0.0454 and 0.0455 and 0.0453 | Slope (velocity of substrate degradation in presence of aTC) (Tet(X6) [5]; substrate Tig, log[aTC] μM 1.41): 0.0221 and 0.024 and 0.0233 | Slope (velocity of substrate degradation in presence of aTC) (Tet(X6) [5]; substrate Tig, log[aTC] μM 1.72): 0.0213 and 0.0168 and 0.0171 | Slope (velocity of substrate degradation in presence of aTC) (Tet(X6) [5]; substrate Tig, log[aTC] μM 2.07): 0.0168 and 0.0154 and 0.0122 | Slope (velocity of substrate degradation in presence of aTC) (Tet(X6) [5]; substrate Tig, log[aTC] μM 2.16): 0.0135 and 0.0131 and 0.0184 | factor by which apparent kcat is lower than for tetracycline antibiotic substrates (Tet(X6) [6]; Tet(X6)): ≤ 7 | Slope (initial velocity of substrate degradation) (Tet(X6) [6]; [Sub] 1.94805 μM): 0.0038 and 0.0045 and 0.003 | Slope (initial velocity of substrate degradation) (Tet(X6) [6]; [Sub] 3.8961 μM): 0.0098 and 0.0073 and 0.0072 | Slope (initial velocity of substrate degradation) (Tet(X6) [6]; [Sub] 6.16883 μM): 0.0097 and 0.0093 and 0.009 | Slope (initial velocity of substrate degradation) (Tet(X6) [6]; [Sub] 8.11688 μM): 0.0054 and 0.0074 and 0.0086 | Slope (initial velocity of substrate degradation) (Tet(X6) [6]; [Sub] 20.1299 μM): 0.0109 and 0.0073 and 0.0099 | Slope (initial velocity of substrate degradation) (Tet(X6) [6]; [Sub] 29.8701 μM): 0.0108 and 0.0104 and 0.0106 | Michaelis-menten nonlinear fit, best-fit Vmax (Tet(X6) [6]; supplementary source data, Tet(X6) 0.4 µM): 0.01106 | ATC concentration inhibiting growth at fixed TET (Fig3a source data) ([7]; TET 0): 32 | ATC concentration inhibiting growth at fixed TET (Fig3a source data) ([7]; TET 1): 32 | ATC concentration inhibiting growth at fixed TET (Fig3a source data) ([7]; TET 2): 32 | ATC concentration inhibiting growth at fixed TET (Fig3a source data) ([7]; TET 4): 32 | ATC concentration inhibiting growth at fixed TET (Fig3a source data) ([7]; TET 8): 32 | ATC concentration inhibiting growth at fixed TET (Fig3a source data) ([7]; TET 16): 16 | ATC concentration inhibiting growth at fixed TET (Fig3a source data) ([7]; TET 32): 16 | ATC concentration inhibiting growth at fixed TET (Fig3a source data) ([7]; TET 64): 16 | ATC concentration inhibiting growth at fixed TET (Fig3a source data) ([7]; TET 128): 8 | ATC concentration inhibiting growth at fixed TET (Fig3a source data) ([7]; TET 256): 0 | MIC [8]: 4 µg/mL | MIC [9]: 8 µg/mL | MIC [10]: 32 µg/mL
